Entries after “also recorded” stand apart in the source; their conditions may differ.
Key:
PPARδ = biological target: T1, PPARδ (Homo sapiens, UniProt Q03181); assay: Gal4-hybrid reporter gene assay PPARδ; format: cell-based; details: mean, n ≥ 3
T1 construct: expressed in transfected cells; host or cells: HEK293T
T1 sequence (Q03181 211-439 limits assumed): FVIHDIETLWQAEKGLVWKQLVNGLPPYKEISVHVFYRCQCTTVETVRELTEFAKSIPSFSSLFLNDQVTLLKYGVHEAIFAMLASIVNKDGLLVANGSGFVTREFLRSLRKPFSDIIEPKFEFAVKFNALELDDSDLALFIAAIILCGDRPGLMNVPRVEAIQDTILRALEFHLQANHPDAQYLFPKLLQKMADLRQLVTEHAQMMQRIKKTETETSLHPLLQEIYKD
Description: (§1) Compound 7 was originally designed with tert-butyloxy motif which was replaced by tert-butyl for improved chemical stability. The dual ligand candidates were characterized in functional assays for the targets of interest using cellular Gal4-hybrid reporter gene assays[43] to determine FXR, THRβ and PPARδ modulation and an enzyme activity assay[44] with the fluorogenic substrate PHOME to test sEH inhibition (Table 1). In vitro characterization of the CLM designed dual FXR/sEH modulators 1–3 confirmed engagement of both targets by all three compounds with sub-micromolar to low micromolar potencies. […] All designed PPARδ/sEH modulators (7–9) were confirmed as dual ligands of the intended targets. 7 emerged as remarkably potent sEH inhibitor endowed with micromolar PPARδ agonist activity.
HEK293T cells (ATCC, CRL-1573) were cultured in Dulbecco’s modified eagle medium (DMEM), high glucose, supplemented with 10% FCS, sodium pyruvate (1 mM), penicillin (100 U/mL), and streptomycin (100 µg/mL) to 70–80% confluence at 37 °C and 5% CO2 and seeded in clear 96-well plates with a density of 40,000 cells/well. After 24 h, the medium was changed to Opti-MEM without supplements. Transient transfection was performed using Lipofectamine LTX reagent (Invitrogen, Carlsbad, CA, USA) according to the manufacturer’s protocol with pFR-Luc (100 ng/well) as reporter plasmid, pRL-SV40 (2 ng/well) for normalization of transfection efficiency and cell growth, and one pFA-CMV-hNR-LBD clone coding for the hinge region and ligand binding domain (LBD) of the NR of interest. […] After overnight (14–16 h) incubation, luminescence was measured using the Dual-Glo® Luciferase Assay System (Promega, Madison, WI, USA) according to the manufacturer’s protocol with a Tecan Spark® 10 M multimode microplate reader. Relative light units (RLU) for normalization of transfection efficiency and cell growth were calculated by dividing firefly luminescence by renilla luminescence and multiplication by 1000. […]

sEH = biological target: T2, sEH (Homo sapiens, UniProt P34913); assay: sEH enzyme activity assay with fluorogenic substrate PHOME; format: biochemical; details: mean, n ≥ 3
T2 construct: His tag (inferred from HisTrap purification with imidazole elution); made in house; own inference
T2 sequence (P34913 1-555): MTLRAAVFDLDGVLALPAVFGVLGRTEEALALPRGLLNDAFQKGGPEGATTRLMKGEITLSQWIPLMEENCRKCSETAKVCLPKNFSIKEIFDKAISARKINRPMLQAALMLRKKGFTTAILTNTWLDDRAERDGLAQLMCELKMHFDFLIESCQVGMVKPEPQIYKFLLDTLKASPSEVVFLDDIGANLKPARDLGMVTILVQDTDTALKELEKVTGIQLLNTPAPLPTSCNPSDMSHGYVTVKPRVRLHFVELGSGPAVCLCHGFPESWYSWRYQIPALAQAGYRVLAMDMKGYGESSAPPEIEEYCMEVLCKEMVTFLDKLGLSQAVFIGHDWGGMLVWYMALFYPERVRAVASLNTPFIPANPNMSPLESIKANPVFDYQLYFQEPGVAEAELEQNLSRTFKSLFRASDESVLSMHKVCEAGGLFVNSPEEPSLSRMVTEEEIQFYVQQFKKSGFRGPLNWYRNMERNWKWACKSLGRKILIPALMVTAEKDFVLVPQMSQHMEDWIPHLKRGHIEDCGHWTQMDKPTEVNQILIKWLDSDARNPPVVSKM
Description: as §1
Soluble epoxide hydrolase (sEH) was purified as described by Hahn et al.[68] and Lukin et al.[69], respectively. Protein expression was carried out in 500 ml ZYP5052 autoinduction medium containing Kanamycin (100 mg/L) with lactose uptake-dependent induction. The fermentation procedure started at 37 °C and 200 rpm until the OD600 reached approximately 1.0. Then the temperature was reduced to 16 °C. After 24–36 h the cells (OD600 ≈ 15.0) were harvested by centrifugation at 5000 × g (4 °C, 20 min). Pellets were resuspended in a resuspension buffer containing Tris (50 mM), NaCl (0.5 M) and MgCl2 (10 mM) at pH 8 and sonicated twice for 15 s on ice. The sonicated suspension was centrifuged (18,000 × g, 30 min, 4 °C) and the supernatant was ultracentrifuged (100,000 × g, 1 h 10 min, 4 °C). The ultracentrifugation supernatant was loaded on a 5 ml HisTrap® FF (GE Healthcare, München, Germany) column at a flow rate of 2 ml/min and washed with washing buffer containing Tris (50 mM), NaCl (0.5 M), MgCl2 (10 mM), imidazole (20 mM) and DTT (3 mM) at pH 8, and eluted at 120 mM imidazole. The fractions containing hsEH after SDS-PAGE fraction analysis were pooled. The identity of hsEH was confirmed by Western Blotting and hsEH hydrolase activity assay. The inhibitory potency of the compounds was determined using a fluorescence-based enzyme activity assay in which PHOME (3-phenyl-cyano(6-methoxy-2-naphthalenyl)methylester-2-oxiraneacetic acid) is metabolized by sEH hydrolase towards a fluorescent naphthalene aldehyde. Dilution series of the compounds were incubated for 30 min with recombinant sEH (final protein concentration 3 nM). Subsequently, the fluorogenic substrate PHOME at final concentration of 50 μM was added, and the fluorescence was measured every minute for 45 min using a Tecan plate reader (ex: 360 nm, em: 465 nm; bandwidth 35 nm). Inhibition in percent was plotted against the logarithmic test compound concentration and IC50-values were calculated using the “log(Inhibitor) vs. Response – Variable slope (four parameters)” equation in GraphPad Prism 7.

FFAR1 = biological target: T3, FFAR1 (Homo sapiens, UniProt O14842); assay: IP-One assay for FFAR1 in stably transfected CHO-K1 cells; format: cell-based; details: cellular IP-One assay; mean, n ≥ 3
T3 construct: expressed in transfected cells
T3 sequence (O14842 whole entry): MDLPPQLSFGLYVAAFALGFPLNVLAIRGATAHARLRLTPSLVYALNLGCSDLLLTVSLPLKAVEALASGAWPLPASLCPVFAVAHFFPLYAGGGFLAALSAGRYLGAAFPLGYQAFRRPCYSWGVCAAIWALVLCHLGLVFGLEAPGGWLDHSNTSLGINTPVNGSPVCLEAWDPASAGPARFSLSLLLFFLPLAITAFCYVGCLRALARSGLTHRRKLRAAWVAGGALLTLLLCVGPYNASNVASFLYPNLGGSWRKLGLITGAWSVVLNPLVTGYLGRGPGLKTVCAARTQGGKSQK
Procedure: (§2) CHO-K1 cells (DSMZ, ACC110) were cultured at 5% CO2 and 37 °C in full growth medium (Ham’s F-12 medium supplemented with 10% fetal calf serum (FCS), penicillin (100 U/mL) and streptomycin (100 µg/mL)). For harvesting cells were incubated with Trypsin/EDTA. IP-One assay for AT1 and FFAR1. To investigate the ligand dependent activation of the two GPCRs, inositol mono-phosphate (IP-One) accumulation was monitored using an HTRF based displacement assay between FRET acceptor coupled IP-One and Terbium cryptate coupled anti-IP-One antibody (IP-One assay kit, Cisbio Bioassays, Codolet, France). AT1: the IP-One assay for AT1 was performed according to the protocol published by Hernandez-Olmos et al.[66] In brief, by using the sleeping beauty method a CHO-K1 cell line was generated which stably overexpresses AT1 isoform 1 and GNA11 (G-protein subunit α 11) as well as cells only overexpressing the GNA11 without any GPCR, as control. Cells were seeded into white tissue culture 384-well plates (Greiner Bio-One, Frickenhausen, Germany) at 15,000 cells/well and incubated overnight at 37 °C and 5% CO2. […] Antagonist activity of compounds was measured with parallel stimulation with 10 nM [Val5]-Angiotensin II. […] A full dose-response curve with FFAR1 reference agonist GW9508 was measured as control for assay performance. […]

AT1 = biological target: T4, AT1 (Homo sapiens, UniProt P30556); assay: IP-One assay for AT1 in stably transfected CHO-K1 cells; format: cell-based; details: cellular IP-One assay; mean, n ≥ 3
T4 construct: expressed in transfected cells
T4 sequence (P30556 1-359): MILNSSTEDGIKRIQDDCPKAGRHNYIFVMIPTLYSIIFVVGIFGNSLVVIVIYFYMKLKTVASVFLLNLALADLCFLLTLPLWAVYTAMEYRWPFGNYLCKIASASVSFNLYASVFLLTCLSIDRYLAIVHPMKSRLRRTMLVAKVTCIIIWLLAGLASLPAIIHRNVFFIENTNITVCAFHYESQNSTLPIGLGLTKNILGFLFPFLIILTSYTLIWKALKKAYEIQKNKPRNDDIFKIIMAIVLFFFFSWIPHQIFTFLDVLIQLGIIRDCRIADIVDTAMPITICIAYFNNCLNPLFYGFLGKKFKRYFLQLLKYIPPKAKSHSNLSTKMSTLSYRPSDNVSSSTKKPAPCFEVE
Procedure: as §2

Structure (SMILES)	PPARδ: fold act. at 80 µM (PPARδ) [fold]	IC50 (sEH) [nM]	AT1: activity (AT1)	further results
O=C(O)CCc1ccc(OC2CCN(C(=O)NCc3c(Cl)cc(Cl)cc3Cl)CC2)cc1 [Compound 9]	3.0	270		
CCC(c1ccc(C(=O)O)cc1)c1cccc(NC(=O)Nc2ccc(OC(F)(F)F)cc2)c1 (stereo not drawn) [Compound 11]		61		FFAR1: activity (FFAR1): inactive
O=C(O)c1ccc(OC2CCCN(C(=O)NCc3ccc(Cl)cc3Cl)CC2)cc1 (stereo not drawn) [Compound 10]		20	inactive	
CC(C)(C)c1ccc(NC(=O)N[C@H]2CC[C@H](Oc3ccc(CCC(=O)O)cc3)CC2)cc1 [Compound 7]		17		EC50 (PPARδ): 10000 nM
O=C(O)CCc1ccc(OC2CCCN(C(=O)NCc3c(Cl)cc(Cl)cc3Cl)CC2)cc1 (stereo not drawn) [Compound 8]	6.7	200		
CC#CC(CC(=O)O)c1ccc(OCc2cccc(-c3ccccc3C(=O)O)c2)cc1 (stereo not drawn) [Compound 12]			no effect; also recorded: inactive	EC50 (FFAR1): 8500 nM

Source: article PMC11390726, “Automated design of multi-target ligands by generative deep learning” (Nature Communications, 2024)
